Assay results published in ChEMBL document CHEMBL5126592, “Design, synthesis and activity against drug-resistant bacteria evaluation of C-20, C-23 modified 5-O-mycaminosyltylonolide derivatives” (Eur J Med Chem, 2022).
In brackets after ≈: the same amount, converted by molar mass. Activity calls are given as the source filed them. The calls are words filed in the database; no cut-off is given here.

Columns and labels:
[1] = system: Escherichia coli; test: Antibacterial activity against Escherichia coli ATCC 25922 incubated for 16 to 20 hrs using 10^4 CFU/ml bacterial inoculum by broth microdilution method; format: functional; settings: time 16-20 hrs
[2] = Genotoxicity in Salmonella typhimurium TA1535 assessed as number of revertants at 1x10^-3 mg/plate incubated for 72 hrs in presence of liver S9 fraction by Ames test (reference value: 15.33 +/- 2.52); format: toxicity, subcellular; settings: salmonella enterica subsp. enterica serovar typhimurium, s9, 72 h
[3] = Genotoxicity in Salmonella typhimurium TA1537 assessed as number of revertants at 1.6x10^-6 mg/plate incubated for 72 hrs in absence of liver S9 fraction by Ames test (reference value: 22.67 +/- 2.52); format: toxicity; settings: salmonella enterica subsp. enterica serovar typhimurium, s9, 72 h
[4] = system: Staphylococcus chromogenes; test: Antibacterial activity against Staphylococcus chromogenes incubated for 16 to 20 hrs by broth microdilution method; format: functional; settings: time 16-20 hrs
[5] = system: Escherichia coli; test: Inhibition of protein synthesis in Escherichia coli ATCC 25922 assessed as reduction in protein content at […] measured upto 12 hrs by microporous enzyme labeling method relative to control; format: functional
[6] = system: Staphylococcus aureus; test: Antibacterial activity against Staphylococcus aureus ATCC 29213 at pH 6.6 incubated for 16 to 20 hrs by broth microdilution method; format: functional; settings: time 16-20 hrs
[7] = Genotoxicity in Salmonella typhimurium TA102 assessed as number of revertants at 4x10^-5 mg/plate incubated for 72 hrs in presence of liver S9 fraction by Ames test (reference value: 465.33 +/- 18.04); format: toxicity, subcellular; settings: salmonella enterica subsp. enterica serovar typhimurium, s9, 72 h
[8] = system: Staphylococcus aureus; test: Antibacterial activity against Staphylococcus aureus ATCC 29213 at pH 8.2 incubated for 16 to 20 hrs by broth microdilution method; format: functional; settings: time 16-20 hrs
[9] = Toxicity in Kunming mouse infected with Staphylococcus aureus ATCC 25923 assessed as reduction in neutrophils at 20 to 40 mg/kg, iv measured after 1 hr by hematoxylin and eosin staining based microscopic analysis; format: organism-based; settings: in vivo, dose 20-40 mg/kg
[10] = system: Staphylococcus aureus; test: Antibacterial activity against Staphylococcus aureus ATCC 25923 infected in kunming mouse assessed as reduction in viable pathogens at 20 mg/kg, iv measured after 1 hr; format: functional, organism-based
[11] = system: Klebsiella pneumoniae; test: Antibacterial activity against Klebsiella pneumoniae ATCC 13883 incubated for 16 to 20 hrs by broth microdilution method; format: functional; settings: time 16-20 hrs
[12] = system: Escherichia coli; test: Antibacterial activity against Escherichia coli ATCC 25922 incubated for 16 to 20 hrs using 10^6 CFU/ml bacterial inoculum by broth microdilution method; format: functional; settings: time 16-20 hrs
[13] = system: Escherichia coli; test: Antibacterial activity against Escherichia coli ATCC 25922 at pH 6.6 incubated for 16 to 20 hrs by broth microdilution method; format: functional; settings: time 16-20 hrs
[14] = system: Staphylococcus aureus; test: Antibacterial activity against Staphylococcus aureus ATCC 29213 at pH 8.6 incubated for 16 to 20 hrs in absence of foetal bovine serum by broth microdilution method; format: functional; settings: time 16-20 hrs
[15] = Genotoxicity in Salmonella typhimurium TA1537 assessed as number of revertants at 8x10^-6 mg/plate incubated for 72 hrs in presence of liver S9 fraction by Ames test (reference value: 20 +/- 5); format: toxicity, subcellular; settings: salmonella enterica subsp. enterica serovar typhimurium, s9, 72 h
[16] = system: Escherichia coli; test: Antibacterial activity against Escherichia coli ATCC 25922 incubated for 16 to 20 hrs by broth microdilution method; format: functional; settings: time 16-20 hrs
[17] = system: Staphylococcus aureus; test: Ratio of MBC to MIC for Staphylococcus aureus ATCC 29213; format: functional
[18] = system: Staphylococcus aureus; test: Antibacterial activity against Staphylococcus aureus ATCC 29213 at pH 7.2 incubated for 16 to 20 hrs by broth microdilution method; format: functional; settings: time 16-20 hrs
[19] = system: Escherichia coli; test: Antibacterial activity against Escherichia coli ATCC 25922 incubated for 16 to 20 hrs in absence of foetal bovine serum by broth microdilution method; format: functional; settings: time 16-20 hrs
[20] = Genotoxicity in Salmonella typhimurium TA98 assessed as number of revertants at 2x10^-4 mg/plate incubated for 72 hrs in presence of liver S9 fraction by Ames test (reference value: 43.67+/- 7.1); format: toxicity, subcellular; settings: salmonella enterica subsp. enterica serovar typhimurium, s9, 72 h
[21] = Genotoxicity in Salmonella typhimurium TA98 assessed as number of revertants at 2x10^-4 mg/plate incubated for 72 hrs in absence of liver S9 fraction by Ames test (reference value: 57.33 +/- 3.06); format: toxicity; settings: salmonella enterica subsp. enterica serovar typhimurium, s9, 72 h
[22] = Toxicity in Kunming mouse infected with Staphylococcus aureus ATCC 25923 assessed as hyperelastic lung tissue at 20 to 40 mg/kg, iv measured after 1 hr by hematoxylin and eosin staining based microscopic analysis; format: organism-based; settings: in vivo, dose 20-40 mg/kg
[23] = system: Escherichia coli; test: Antibacterial activity against Escherichia coli ATCC 25922 incubated for 16 to 20 hrs using 10^3 CFU/ml bacterial inoculum by broth microdilution method; format: functional; settings: time 16-20 hrs
[24] = Genotoxicity in Salmonella typhimurium TA98 assessed as number of revertants at 1x10^-3 mg/plate incubated for 72 hrs in absence of liver S9 fraction by Ames test (reference value: 57.33 +/- 3.06); format: toxicity; settings: salmonella enterica subsp. enterica serovar typhimurium, s9, 72 h
[25] = system: Staphylococcus aureus; test: Antibacterial activity against Staphylococcus aureus ATCC 25923 infected in kunming mouse assessed as reduction in bacterial load at 20 to 40 mg/kg, iv measured after 1 hr; format: functional, organism-based; settings: dose 20-40 mg/kg
[26] = system: Escherichia coli; test: Antibacterial activity against Escherichia coli ATCC 25922 at pH 6.8 incubated for 16 to 20 hrs by broth microdilution method; format: functional; settings: time 16-20 hrs
[27] = Genotoxicity in Salmonella typhimurium TA1537 assessed as number of revertants at 1x10^-3 mg/plate incubated for 72 hrs in presence of liver S9 fraction by Ames test (reference value: 20 +/- 5); format: toxicity, subcellular; settings: salmonella enterica subsp. enterica serovar typhimurium, s9, 72 h
[28] = Genotoxicity in Salmonella typhimurium TA102 assessed as number of revertants at 1x10^-3 mg/plate incubated for 72 hrs in absence of liver S9 fraction by Ames test (reference value: 386.67 +/- 23.44); format: toxicity; settings: salmonella enterica subsp. enterica serovar typhimurium, s9, 72 h
[29] = system: Staphylococcus aureus; test: Antibacterial activity against Staphylococcus aureus ATCC 29213 at pH 7.8 incubated for 16 to 20 hrs by broth microdilution method; format: functional; settings: time 16-20 hrs
[30] = Genotoxicity in Salmonella typhimurium TA100 assessed as number of revertants at 1x10^-3 mg/plate incubated for 72 hrs in presence of liver S9 fraction by Ames test (reference value: 204.33 +/- 8.14); format: toxicity, subcellular; settings: salmonella enterica subsp. enterica serovar typhimurium, s9, 72 h
[31] = Genotoxicity in Salmonella typhimurium TA98 assessed as number of revertants at 4x10^-5 mg/plate incubated for 72 hrs in absence of liver S9 fraction by Ames test (reference value: 57.33 +/- 3.06); format: toxicity; settings: salmonella enterica subsp. enterica serovar typhimurium, s9, 72 h
[32] = Genotoxicity in Salmonella typhimurium TA98 assessed as number of revertants at 4x10^-5 mg/plate incubated for 72 hrs in presence of liver S9 fraction by Ames test (reference value: 43.67+/- 7.1); format: toxicity, subcellular; settings: salmonella enterica subsp. enterica serovar typhimurium, s9, 72 h
[33] = system: Escherichia coli; test: Antibacterial activity against Escherichia coli ATCC 25922 at pH 8.6 incubated for 16 to 20 hrs by broth microdilution method; format: functional; settings: time 16-20 hrs
[34] = system: Escherichia coli; test: Induction of drug resistance in Escherichia coli ATCC 25922 assessed as increase in MIC measured after 30 passages by broth microdilution method; format: functional
[35] = system: Staphylococcus aureus; test: Antibacterial activity against Staphylococcus aureus ATCC 29213 at pH 8 incubated for 16 to 20 hrs by broth microdilution method; format: functional; settings: time 16-20 hrs
[36] = Genotoxicity in Salmonella typhimurium TA1535 assessed as number of revertants at 2x10^-4 mg/plate incubated for 72 hrs in presence of liver S9 fraction by Ames test (reference value: 15.33 +/- 2.52); format: toxicity, subcellular; settings: salmonella enterica subsp. enterica serovar typhimurium, s9, 72 h

Molecule `CC[C@H]1OC(=O)C[C@@H](O)[C@H](C)[C@@H](O[C@@H]2O[C@H](C)[C@@H](O)[C@H](N(C)C)[C@H]2O)[C@@H](CCN(C)Cc2cn(-c3cnc4ccccc4c3)nn2)C[C@@H](C)C(=O)/C=C/C(C)=C/[C@@H]1CN1CCCCCC1` has an MIC [1] of 0.25 µg/mL (≈ 0.277 µM), an Activity [2] of 11 and an Activity [3] of 14.33. The MIC [4] was 0.25 µg/mL (≈ 0.277 µM), the inhibition [5] was 32.1% and the MIC [6] was 32 µg/mL (≈ 35.5 µM). For the same molecule, the Activity [7] was 433.33, the MIC [8] was at most 0.0625 µg/mL and the Activity [9] was “Non-Toxic”. The Activity [10] was “Active”, the MIC [11] was 1 µg/mL (≈ 1.11 µM) and the MIC [12] was 0.5 µg/mL (≈ 0.554 µM). It also gave an MIC [13] of 32 µg/mL (≈ 35.5 µM), an MIC [14] of 0.25 µg/mL (≈ 0.277 µM) and an Activity [15] of 17.67. It also gave an MIC [16] of 1 µg/mL (≈ 1.11 µM), a Ratio [17] of 2 and an MIC [18] of 0.5 µg/mL (≈ 0.554 µM). For the same molecule, the MIC [19] was 1 µg/mL (≈ 1.11 µM), the Activity [20] was 44.33 and the Activity [21] was 61.33. For the same molecule, the Activity [22] was “Non-Toxic”, the MIC [23] was 0.25 µg/mL (≈ 0.277 µM) and the Activity [24] was 60.33. For the same molecule, the Activity [25] was “Active”, the MIC [26] was 8 µg/mL (≈ 8.87 µM) and the Activity [27] was 15.67. For the same molecule, the Activity [28] was 418, the MIC [29] was at most 0.0625 µg/mL and the Activity [30] was 174.67. For the same molecule, the Activity [31] was 62.33, the Activity [32] was 44.67 and the MIC [33] was 0.25 µg/mL (≈ 0.277 µM). The Activity [34] was “Active”, the MIC [35] was at most 0.0625 µg/mL and the Activity [36] was 12.67.
